Assay results from patent US10202361B2, “Pyridazinones as herbicides” (E I DU PONT DE NEMOURS AND COMPANY, priority 2014, dated 2019).

What was measured:
Test in all cases: Test D pre-/postemergence controlled growth environment herbicide test
Type in all cases: in vivo
Conditions in all cases: scale 0 to 100
[1] = system: barley, spring (spring barley, Hordeum vulgare)
How it was run: (§1)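 Ratings come from visual comparison with untreated plants on a 0–100 scale, 0 meaning no effect. Test chemicals in surfactant-containing solvent were applied either to soil at planting (silt loam) or over foliage of 2–18 cm plants in peat-based medium, then held 14–21 d in a controlled growth environment.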

[2] = system: blackgrass (Alopecurus myosuroides)
How it was run: as §1

[3] = system: bluegrass (annual bluegrass, Poa annua)
How it was run: as §1

[4] = system: canarygrass (Phalaris minor)
How it was run: as §1

[5] = system: chamomile (scentless chamomile, Matricaria inodora)
How it was run: as §1

[6] = system: chickweed (common chickweed, Stellaria media)
How it was run: as §1

[7] = system: field violet (Viola arvensis)
How it was run: as §1

[8] = system: lambsquarters (Chenopodium album)
How it was run: as §1

[9] = system: oilseed rape (Brassica napus)
How it was run: as §1

[10] = system: ryegrass, Italian (Italian ryegrass, Lolium multiflorum)
How it was run: as §1

[11] = system: wheat, spring (spring wheat, Triticum aestivum)
How it was run: as §1

`Cc1cc(=O)n(-c2ccc(C(F)(F)F)cc2)nc1Cc1ccnc(C(F)(F)F)c1` [Compound 2, 5-methyl-2-[4-(trifluoromethyl)phenyl]-6-[[2-(trifluoromethyl)-4-pyridinyl]methyl]-3(2H)-pyridazinone] was tested, and the Plant response rating ([1]; Postemergence, 31 g ai/ha) was 10, the Plant response rating ([1]; Postemergence, 62 g ai/ha) was 10 and the Plant response rating ([1]; Postemergence, 125 g ai/ha) was 10. It also gave a Plant response rating ([1]; Postemergence, 250 g ai/ha) of 15, a Plant response rating ([1]; Postemergence, 500 g ai/ha) of 25 and a Plant response rating ([1]; Preemergence, 31 g ai/ha) of 0. For the same compound, the Plant response rating ([1]; Preemergence, 62 g ai/ha) was 0, the Plant response rating ([1]; Preemergence, 125 g ai/ha) was 0 and the Plant response rating ([1]; Preemergence, 250 g ai/ha) was 25. For the same compound, the Plant response rating ([1]; Preemergence, 500 g ai/ha) was 50, the Plant response rating ([2]; Postemergence, 31 g ai/ha) was 5 and the Plant response rating ([2]; Postemergence, 62 g ai/ha) was 15. The Plant response rating ([2]; Postemergence, 125 g ai/ha) was 20, the Plant response rating ([2]; Postemergence, 250 g ai/ha) was 30 and the Plant response rating ([2]; Postemergence, 500 g ai/ha) was 50. The Plant response rating ([2]; Preemergence, 31 g ai/ha) was 5, the Plant response rating ([2]; Preemergence, 62 g ai/ha) was 20 and the Plant response rating ([2]; Preemergence, 125 g ai/ha) was 60. The Plant response rating ([2]; Preemergence, 250 g ai/ha) was 60, the Plant response rating ([2]; Preemergence, 500 g ai/ha) was 80 and the Plant response rating ([3]; Postemergence, 31 g ai/ha) was 10. It also gave a Plant response rating ([3]; Postemergence, 62 g ai/ha) of 15, a Plant response rating ([3]; Postemergence, 125 g ai/ha) of 20 and a Plant response rating ([3]; Postemergence, 250 g ai/ha) of 20. For the same compound, the Plant response rating ([3]; Postemergence, 500 g ai/ha) was 30, the Plant response rating ([3]; Preemergence, 31 g ai/ha) was 0 and the Plant response rating ([3]; Preemergence, 62 g ai/ha) was 0. The Plant response rating ([3]; Preemergence, 125 g ai/ha) was 10, the Plant response rating ([3]; Preemergence, 250 g ai/ha) was 30 and the Plant response rating ([3]; Preemergence, 500 g ai/ha) was 100. It also gave a Plant response rating ([4]; Postemergence, 31 g ai/ha) of 20, a Plant response rating ([4]; Postemergence, 62 g ai/ha) of 20 and a Plant response rating ([4]; Postemergence, 125 g ai/ha) of 20. For the same compound, the Plant response rating ([4]; Postemergence, 250 g ai/ha) was 20, the Plant response rating ([4]; Postemergence, 500 g ai/ha) was 25 and the Plant response rating ([4]; Preemergence, 31 g ai/ha) was 0. For the same compound, the Plant response rating ([4]; Preemergence, 62 g ai/ha) was 25, the Plant response rating ([4]; Preemergence, 125 g ai/ha) was 40 and the Plant response rating ([4]; Preemergence, 250 g ai/ha) was 40. The Plant response rating ([4]; Preemergence, 500 g ai/ha) was 85, the Plant response rating ([5]; Postemergence, 31 g ai/ha) was 30 and the Plant response rating ([5]; Postemergence, 62 g ai/ha) was 30. The Plant response rating ([5]; Postemergence, 125 g ai/ha) was 30, the Plant response rating ([5]; Postemergence, 250 g ai/ha) was 40 and the Plant response rating ([5]; Postemergence, 500 g ai/ha) was 60. The Plant response rating ([5]; Preemergence, 31 g ai/ha) was 0, the Plant response rating ([5]; Preemergence, 62 g ai/ha) was 0 and the Plant response rating ([5]; Preemergence, 125 g ai/ha) was 25. The Plant response rating ([5]; Preemergence, 250 g ai/ha) was 50, the Plant response rating ([5]; Preemergence, 500 g ai/ha) was 90 and the Plant response rating ([6]; Postemergence, 31 g ai/ha) was 30. It also gave a Plant response rating ([6]; Postemergence, 62 g ai/ha) of 40, a Plant response rating ([6]; Postemergence, 125 g ai/ha) of 70 and a Plant response rating ([6]; Postemergence, 250 g ai/ha) of 75. For the same compound, the Plant response rating ([6]; Postemergence, 500 g ai/ha) was 100, the Plant response rating ([6]; Preemergence, 31 g ai/ha) was 100 and the Plant response rating ([6]; Preemergence, 62 g ai/ha) was 100. For the same compound, the Plant response rating ([6]; Preemergence, 125 g ai/ha) was 100, the Plant response rating ([6]; Preemergence, 250 g ai/ha) was 100 and the Plant response rating ([6]; Preemergence, 500 g ai/ha) was 100. For the same compound, the Plant response rating ([7]; Postemergence, 31 g ai/ha) was 50, the Plant response rating ([7]; Postemergence, 62 g ai/ha) was 90 and the Plant response rating ([7]; Postemergence, 125 g ai/ha) was 100. For the same compound, the Plant response rating ([7]; Postemergence, 250 g ai/ha) was 100, the Plant response rating ([7]; Postemergence, 500 g ai/ha) was 100 and the Plant response rating ([7]; Preemergence, 31 g ai/ha) was 60. The Plant response rating ([7]; Preemergence, 62 g ai/ha) was 80, the Plant response rating ([7]; Preemergence, 125 g ai/ha) was 90 and the Plant response rating ([7]; Preemergence, 250 g ai/ha) was 100. The Plant response rating ([7]; Preemergence, 500 g ai/ha) was 100, the Plant response rating ([8]; Postemergence, 31 g ai/ha) was 20 and the Plant response rating ([8]; Postemergence, 62 g ai/ha) was 20. For the same compound, the Plant response rating ([8]; Postemergence, 125 g ai/ha) was 40, the Plant response rating ([8]; Postemergence, 250 g ai/ha) was 80 and the Plant response rating ([8]; Postemergence, 500 g ai/ha) was 90. It also gave a Plant response rating ([8]; Preemergence, 31 g ai/ha) of 20, a Plant response rating ([8]; Preemergence, 62 g ai/ha) of 75 and a Plant response rating ([8]; Preemergence, 125 g ai/ha) of 75. The Plant response rating ([8]; Preemergence, 250 g ai/ha) was 90, the Plant response rating ([8]; Preemergence, 500 g ai/ha) was 90 and the Plant response rating ([9]; Postemergence, 31 g ai/ha) was 60. It also gave a Plant response rating ([9]; Postemergence, 62 g ai/ha) of 75, a Plant response rating ([9]; Postemergence, 125 g ai/ha) of 80 and a Plant response rating ([9]; Postemergence, 250 g ai/ha) of 98. It also gave a Plant response rating ([9]; Postemergence, 500 g ai/ha) of 100, a Plant response rating ([9]; Preemergence, 31 g ai/ha) of 20 and a Plant response rating ([9]; Preemergence, 62 g ai/ha) of 20. For the same compound, the Plant response rating ([9]; Preemergence, 125 g ai/ha) was 50, the Plant response rating ([9]; Preemergence, 250 g ai/ha) was 95 and the Plant response rating ([9]; Preemergence, 500 g ai/ha) was 95. For the same compound, the Plant response rating ([10]; Postemergence, 31 g ai/ha) was 0, the Plant response rating ([10]; Postemergence, 62 g ai/ha) was 10 and the Plant response rating ([10]; Postemergence, 125 g ai/ha) was 15. The Plant response rating ([10]; Postemergence, 250 g ai/ha) was 20, the Plant response rating ([10]; Postemergence, 500 g ai/ha) was 25 and the Plant response rating ([10]; Preemergence, 31 g ai/ha) was 0. The Plant response rating ([10]; Preemergence, 62 g ai/ha) was 0, the Plant response rating ([10]; Preemergence, 125 g ai/ha) was 25 and the Plant response rating ([10]; Preemergence, 250 g ai/ha) was 30. For the same compound, the Plant response rating ([10]; Preemergence, 500 g ai/ha) was 35, the Plant response rating ([11]; Postemergence, 31 g ai/ha) was 10 and the Plant response rating ([11]; Postemergence, 62 g ai/ha) was 10. For the same compound, the Plant response rating ([11]; Postemergence, 125 g ai/ha) was 10, the Plant response rating ([11]; Postemergence, 250 g ai/ha) was 15 and the Plant response rating ([11]; Postemergence, 500 g ai/ha) was 20. It also gave a Plant response rating ([11]; Preemergence, 31 g ai/ha) of 0, a Plant response rating ([11]; Preemergence, 62 g ai/ha) of 0 and a Plant response rating ([11]; Preemergence, 125 g ai/ha) of 15. It also gave a Plant response rating ([11]; Preemergence, 250 g ai/ha) of 30 and a Plant response rating ([11]; Preemergence, 500 g ai/ha) of 50.
